Data as given in BigSolDB 2.1.

N#Cc1c(Cl)c(Cl)c(Cl)c(C#N)c1Cl
solubility (mole fraction)
Conditions | in 1,4-dioxane | in DMAc | in DMF | in MIBK | in THF | in acetone | in acetonitrile | in cyclohexanone | in ethyl acetate | in n-propyl acetate
288.15 K | 0.0082 | 0.017 | 0.00992 | 0.00381 | 0.00909 | 0.00369 | 0.00134 | 0.0079 | 0.00311 | 0.0033
293.15 K | 0.00951 | 0.0191 | 0.0111 | 0.00447 | 0.0102 | 0.00443 | 0.00161 | 0.00905 | 0.00374 | 0.00384
298.15 K | 0.0109 | 0.0211 | 0.0128 | 0.00509 | 0.012 | 0.00512 | 0.00193 | 0.0106 | 0.00435 | 0.00444
303.15 K | 0.0118 | 0.0239 | 0.0142 | 0.00603 | 0.0137 | 0.00566 | 0.00228 | 0.0123 | 0.00496 | 0.00523
308.15 K | 0.0136 | 0.0264 | 0.0155 | 0.00668 | 0.0155 | 0.00682 | 0.00272 | 0.0135 | 0.00543 | 0.00566
313.15 K | 0.015 | 0.03 | 0.0177 | 0.00802 | 0.0172 | 0.00779 | 0.00308 | 0.0154 | 0.00643 | 0.0067
318.15 K | 0.0177 | 0.0334 | 0.0197 | 0.0102 | 0.0208 | 0.00932 | 0.00413 | 0.019 | 0.00744 | 0.0079
323.15 K | 0.0215 | 0.0359 | 0.0233 | 0.0115 | 0.023 | 0.0113 | 0.00462 | 0.0222 | 0.00893 | 0.00904
